# Biological target: T1, human recombinant mGluR5 receptor (Homo sapiens, UniProt P41594)
# T1 construct: expressed in transfected cells; expression induced with doxycycline
# Assay: mGluR5 in vitro functional assay (aequorin cell line, inhibition of glutamate EC80 response)
# Type: cell-based
# Conditions: Table 2; aequorin cell line expressing human mGluR5, reference agonist glutamate at EC80; obtained in duplicate; read-out: IC50
# In short: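 Doxycycline-induced (600 ng/mL, 18 h) aequorin cells loaded with coelenterazine h ≥4 h at room temperature; compound preincubated 3 min before glutamate at EC80. Luminescence recorded, normalized to digitonin or 20 mM ATP wells; % inhibition of EC80 response fitted by sigmoidal nonlinear regression.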
# T1 sequence (P41594 21-1212): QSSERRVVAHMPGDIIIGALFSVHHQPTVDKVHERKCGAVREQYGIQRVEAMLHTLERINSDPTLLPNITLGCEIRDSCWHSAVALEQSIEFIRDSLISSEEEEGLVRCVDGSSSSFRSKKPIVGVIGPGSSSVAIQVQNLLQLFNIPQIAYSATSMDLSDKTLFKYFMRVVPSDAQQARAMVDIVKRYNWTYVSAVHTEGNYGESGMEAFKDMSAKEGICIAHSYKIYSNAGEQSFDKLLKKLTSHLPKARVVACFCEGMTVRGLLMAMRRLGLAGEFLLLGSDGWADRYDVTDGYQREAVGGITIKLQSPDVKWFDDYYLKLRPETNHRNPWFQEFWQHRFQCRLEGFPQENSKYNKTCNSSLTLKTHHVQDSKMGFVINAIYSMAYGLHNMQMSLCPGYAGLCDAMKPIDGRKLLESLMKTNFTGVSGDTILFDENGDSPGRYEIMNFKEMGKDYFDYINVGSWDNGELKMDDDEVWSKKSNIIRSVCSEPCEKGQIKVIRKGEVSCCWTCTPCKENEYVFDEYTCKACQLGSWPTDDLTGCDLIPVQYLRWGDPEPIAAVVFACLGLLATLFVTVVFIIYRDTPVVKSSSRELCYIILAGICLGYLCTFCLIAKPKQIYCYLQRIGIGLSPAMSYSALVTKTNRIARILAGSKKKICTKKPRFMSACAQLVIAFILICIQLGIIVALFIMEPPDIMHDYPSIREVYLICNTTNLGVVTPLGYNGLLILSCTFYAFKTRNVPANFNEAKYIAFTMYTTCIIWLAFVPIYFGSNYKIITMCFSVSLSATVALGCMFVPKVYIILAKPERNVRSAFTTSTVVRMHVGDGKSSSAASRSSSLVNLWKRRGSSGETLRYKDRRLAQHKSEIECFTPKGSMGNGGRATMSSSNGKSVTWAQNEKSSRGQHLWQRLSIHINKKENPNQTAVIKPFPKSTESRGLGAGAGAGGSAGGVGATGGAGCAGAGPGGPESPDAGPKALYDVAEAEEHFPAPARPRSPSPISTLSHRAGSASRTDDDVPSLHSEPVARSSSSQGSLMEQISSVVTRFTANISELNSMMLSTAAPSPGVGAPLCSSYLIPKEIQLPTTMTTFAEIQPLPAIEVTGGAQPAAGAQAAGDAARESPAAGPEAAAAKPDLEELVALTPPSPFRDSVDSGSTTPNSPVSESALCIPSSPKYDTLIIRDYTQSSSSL
row,SMILES,IC50 [nM]
1,"COc1cc(C#N)cc(N2CCCc3oc(-c4ccccn4)nc3C2)c1 [Compound 213, 3-Methoxy-5-(2-(pyridin-2-yl)-7,8-dihydro-4H-oxazolo[4,5-c]azepin-5(6H)-yl)benzonitrile]",< 1000
2,"N#Cc1cc(O)cc(N2CCCc3oc(-c4ccccn4)nc3C2)c1 [Compound 214, 3-Hydroxy-5-(2-(pyridin-2-yl)-7,8-dihydro-4H-oxazolo[4,5-c]azepin-5(6H)-yl)benzonitrile]",< 1000
3,"CC1CCN(c2cc(F)cc(C#N)c2)Cc2nc(-c3ccccn3)oc21 (stereo not shown) [Compound 215, 3-Fluoro-5-(8-methyl-2-(pyridin-2-yl)-7,8-dihydro-4H-oxazolo[4,5-c]azepin-5(6H)-yl)benzonitrile]",< 1000
4,"N#Cc1cc(N2CCCc3oc(-c4ccccn4)nc3C2)cc(F)c1F [Compound 216, 2,3-Difluoro-5-(2-(pyridin-2-yl)-7,8-dihydro-4H-oxazolo[4,5-c]azepin-5(6H)-yl)benzonitrile]",< 1000
5,"COc1c(F)cc(N2CCCc3oc(-c4ccccn4)nc3C2)cc1C#N [Compound 217, 3-Fluoro-2-methoxy-5-(2-(pyridin-2-yl)-7,8-dihydro-4H-oxazolo[4,5-c]azepin-5(6H)-yl)benzonitrile]",< 1000
6,"N#Cc1cc(N2CCCc3oc(-c4ccccn4)nc3C2)cc(F)c1O [Compound 218, 3-Fluoro-2-hydroxy-5-(2-(pyridin-2-yl)-7,8-dihydro-4H-oxazolo[4,5-c]azepin-5(6H)-yl)benzonitrile]",< 10000
7,"N#Cc1cc(F)cc(C2CCc3oc(-c4ccccn4)nc3C2)c1 (stereo not shown) [Compound 222, 3-Fluoro-5-(2-(pyridin-2-yl)-4,5,6,7-tetrahydrobenzo[d]oxazol-5-yl)benzonitrile]",< 1000
